Reference: US11453697B1, “Cyclic di-nucleotide compounds as sting agonists” (Merck Sharp & Dohme Corp., priority 2015, dated 2022)

Assays:
full-length HAQ STING = full-length HAQ STING (Homo sapiens (Human), UniProt Q86WV6, G230A/H232R/R293Q/R71H); assay: 3H-cGAMP filtration binding assay (HAQ STING); conditions: competition with tritiated cGAMP, HAQ STING membrane; read-out: EC50 (nM), 3H-cGAMP filtration binding assay for HAQ STING
In short: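 Competition binding of compounds against 8 nM [3H]cGAMP working stock on Hi-Five cell membranes overexpressing full-length HAQ STING; compound and membrane preincubated 60 min at RT before ligand addition. Bound radioactivity read by filtration and scintillation counting; percent activity normalized to controls, EC50 from 4-parameter fit.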

[1] = system: IFN-β secretion in THP1 cells; assay: IFN-β secretion in THP1 cell culture (5 h); type: cell-based, human; conditions: IFN-β secretion in THP1 cell culture, 5 h; compound at 30 μM; percent activation relative to 2′3′-cGAMP
In short: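 THP1 cells incubated with compound for 5 h at 37 °C, 5% CO2, and secreted IFN-β in supernatant quantified by AlphaLISA. Percent effect normalised to 30 uM cGAMP positive control and 0.3% DMSO. EC50 from 4-parameter fit.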

Chain of full-length HAQ STING (Q86WV6 other isoform, or with tags, fused parts or gaps, stated change not applied): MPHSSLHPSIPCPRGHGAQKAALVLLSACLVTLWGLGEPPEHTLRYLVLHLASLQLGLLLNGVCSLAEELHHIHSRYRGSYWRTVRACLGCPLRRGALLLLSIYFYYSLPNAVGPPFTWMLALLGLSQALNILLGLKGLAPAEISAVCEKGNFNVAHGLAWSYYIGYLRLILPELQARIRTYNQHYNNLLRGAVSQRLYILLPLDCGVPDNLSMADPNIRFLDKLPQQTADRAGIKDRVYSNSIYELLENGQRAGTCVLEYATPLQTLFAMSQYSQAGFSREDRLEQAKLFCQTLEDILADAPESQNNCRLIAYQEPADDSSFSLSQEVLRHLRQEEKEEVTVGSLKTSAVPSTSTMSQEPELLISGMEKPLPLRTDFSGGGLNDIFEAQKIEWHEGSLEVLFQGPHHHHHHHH

Row | Structure (SMILES) | EC50 (full-length HAQ STING) [nM] | % Effect at 30 μM relative to 2′3′-cGAMP [1] [%]
1 | Nc1nc2c(ncn2[C@@H]2O[C@@H]3CO[P@@](=O)(S)O[C@H]4[C@@H](O)[C@H](n5cnc6c(=O)[nH]cnc65)O[C@@H]4CO[P@@](=O)(S)O[C@@H]2C3)c(=O)[nH]1 [Example 290, 2-amino-9-[(2R,5S,7R,8R,10R,12aR,14R,15R,15aS)-15-hydroxy-2,10-dioxido-14-(6-oxo-1,6-dihydro-9H-purin-9-yl)-2,10-disulfanyloctahydro-12H-5,8-methanofuro[3,2-l][1,3,6,9,11,2,10]pentaoxadiphosphacyclotetradecin-7-yl]-1,9-dihydro-6H-purin-6-one] | 2.5 | 90
2 | Nc1nc2c(ncn2[C@@H]2O[C@@H]3COP(=O)(O)O[C@H]4[C@H](F)[C@H](n5cnc6c(=O)[nH]cnc65)O[C@@H]4COP(=O)(O)O[C@@H]2C3)c(=O)[nH]1 [Example 312, 2-amino-9-[(5S,7R,8R,12aR,14R,15S,15aR)-15-fluoro-2,10-dihydroxy-2,10-dioxido-14-(6-oxo-1,6-dihydro-9H-purin-9-yl)octahydro-12H-5,8-methanofuro[3,2-l] [1,3,6,9,11,2,10]pentaoxadiphosphacyclo-tetradecin-7-yl]-1,9-dihydro-6H-purin-6-one] | 122 | 90
3 | Nc1nc2c(ncn2[C@@H]2O[C@@H]3COP(=O)(O)O[C@H]4[C@H](F)[C@H](n5cnc6c(=O)[nH]cnc65)O[C@@H]4COP(=O)(O)O[C@@H]2[C@@H]3F)c(=O)[nH]1 [Example 315, 2-amino-9-[(5R,7R,8S,12aR,14R,15S,15aR,16R)-15,16-difluoro-2,10-dihydroxy-2,10-dioxido-14-(6-oxo-1,6-dihydro-9H-purin-9-yl)octahydro-12H-5,8-methanofuro [3,2-l][1,3,6,9,11,2,10]pentaoxadiphosphacyclotetradecin-7-yl]-1,9-dihydro-6H-purin-6-one] | 49.9 | 92
4 | Nc1ncnc2c1ccn2[C@@H]1O[C@@H]2COP(=O)(O)O[C@@H]3[C@H](O)[C@@H](COP(=O)(O)O[C@H]2[C@H]1O)O[C@H]3n1cnc2c(=O)[nH]cnc21 [Example 35, 9-[(5R,7R,8R,12aR,14R,15R,15aS,16R)-14-(4-amino-7H-pyrrolo[2,3-d]pyrimidin-7-yl)-2,10,15,16-tetrahydroxy-2,10-dioxidooctahydro-12H-5,8-methanofuro[3,2-l][1,3,6,9,11,2,10]pentaoxadiphosphacyclotetradecin-7-yl]-1,9-dihydro-6H-purin-6-one] | 7.9 | 51
5 | Nc1nc2c(ncn2[C@@H]2O[C@@H]3COP(=O)(O)O[C@H]4[C@H](Cl)[C@H](n5cnc6c(=O)[nH]cnc65)O[C@@H]4COP(=O)(O)O[C@@H]2[C@@H]3O)c(=O)[nH]1 [Example 322, 2-amino-9-[(5R,7R,8R,12aR,14R, 15S,15aR,16R)-15-chloro-2,10,16-trihydroxy-2,10-dioxido-14-(6-oxo-1,6-dihydro-9H-purin-9-yl)octahydro-12H-5,8-methanofuro[3,2-l][1,3,6,9,11,2,10]pentaoxadiphosphacyclotetradecin-7-yl]-1,9-dihydro-6H-purin-6-one] | 68.8 | 41
6 | Nc1nc2c(ncn2[C@@H]2O[C@@H]3COP(=O)(S)O[C@H]4[C@@H](O)[C@H](n5ccc6c(N)ncnc65)O[C@@H]4COP(=O)(S)O[C@@H]2C3)c(=O)[nH]1 (single isomer, unassigned) [Example 77] | 161 | 39
7 | CO[C@H]1[C@H]2OP(=O)(O)OC[C@H]3O[C@@H](n4cnc5c(O)ncnc54)[C@H](O)[C@@H]3OP(=O)(O)OC[C@H]1O[C@H]2n1cnc2c(=O)[nH]c(N)nc21 [Example 301, 2-amino-9-[(5R,7R,8R,12aR,14R,15R,15aS,16R)-2,10,15-trihydroxy-14-(6-hydroxy-9H-purin-9-yl)-16-methoxy-2,10-dioxidooctahydro-12H-5,8-methanofuro[3,2-l][1,3,6,9,11,2,10]pentaoxadiphosphacyclotetradecin-7-yl]-1,9-dihydro-6H-purin-6-one] | 4.8 | 107
8 | Nc1nc2c(ncn2[C@@H]2O[C@@H]3COP(=O)(O)O[C@H]4[C@@H](O)[C@H](n5cnc6c(N)ncnc65)O[C@@H]4COP(=O)(O)O[C@@H]2[C@@H]3O)c(=S)[nH]1 [Example 53, 2-amino-9-[(5R,7R,8R,12aR,14R,15R,15aS,16R)-14-(6-amino-9H-purin-9-yl)-2,10,15,16-tetrahydroxy-2,10-dioxidooctahydro-12H-5,8-methanofuro[3,2-l][1,3,6,9,11,2,10]pentaoxadiphosphacyclotetradecin-7-yl]-1,9-dihydro-6H-purine-6-thione] | 1.7 | 127
9 | Nc1nc2c(ncn2[C@@H]2S[C@@H]3COP(=O)(O)OC4C(O)[C@H](n5cnc6c(N)ncnc65)O[C@@H]4COP(=O)(O)OC2C3O)c(=O)[nH]1 (stereo in doubt) [Example 11, (5R,7R,8R,12aR,14R,15R,15aS,16S)-7-(2-amino-6-oxo-1,6-dihydro-9H-purin-9-yl)-14-(6-amino-9H-purin-9-yl)-15,16-dihydroxyoctahydro-12H-5,8-methanofuro[3,2-l][1,3,9,11,6,2,10] tetraoxathiadiphosphacyclotetradecine-2,10-diolate 2,10-dioxide] | 1.2 | 169
10 | Nc1nc2c(ncn2[C@@H]2O[C@@H]3COP(=O)(O)O[C@H]4[C@@H](O)[C@H](n5cc(F)c6c(N)ncnc65)O[C@@H]4COP(=O)(O)O[C@@H]2[C@@H]3O)c(=O)[nH]1 [Example 33, 2-amino-9-[(5R,7R,8R,12aR,14R,15R,15aS,16R)-14-(4-amino-5-fluoro-7H-pyrrolo[2,3-d]pyrimidin-7-yl)-2,10,15,16-tetrahydroxy-2,10-dioxidooctahydro-12H-5,8-methanofuro[3,2-l][1,3,6,9,11,2,10]pentaoxadiphosphacyclotetradecin-7-yl]-1,9-dihydro-6H-purin-6-one] | 11.9 | 200
11 | Nc1nc2c(ncn2[C@@H]2O[C@@H]3COP(=O)(O)O[C@H]4[C@H](F)[C@H](n5cnc6c(=O)[nH]cnc65)O[C@@H]4COP(=O)(O)O[C@@H]2[C@@H]3O)c(=O)[nH]1 [Example 295, 2-amino-9-[(5R,7R,8R,12aR,14R,15S,15aR,16R)-15-fluoro-2,10,16-trihydroxy-2,10-dioxido-14-(6-oxo-1,6-dihydro-9H-purin-9-yl)octahydro-12H-5,8-methanofuro[3,2-l] [1,3,6,9,11,2,10]pentaoxadiphosphacyclo-tetradecin-7-yl]-1,9-dihydro-6H-purin-6-one] | 29.6 | 70
12 | Nc1nc2c(ncn2[C@@H]2O[C@@H]3COP(=O)(O)O[C@H]4[C@@H](O)[C@H](c5cnc6c(N)ncnn56)O[C@@H]4COP(=O)(O)O[C@@H]2[C@@H]3O)c(=O)[nH]1 [Example 40, 2-amino-9-[(5R,7R,8R,12aR,14S,15S,15aS,16R)-14-(4-aminoimidazo[2,1-f][1,2,4]triazin-7-yl)-2,10,15,16-tetrahydroxy-2,10-dioxidooctahydro-12H-5,8-methanofuro[3,2-l][1,3,6,9,11,2,10]pentaoxadiphosphacyclotetradecin-7-yl]-1,9-dihydro-6H-purin-6-one] | 3.2 | 77
13 | Nc1ncnc2c1ncn2[C@@H]1O[C@@H]2COP(=O)(O)O[C@@H]3[C@H](O)[C@@H](COP(=O)(O)O[C@H]2[C@H]1O)O[C@H]3c1cnc2c(=O)[nH]cnn12 [Example 68, 7-[(5R,7S,8R,12aR,14R,15R,15aS,16R)-14-(6-amino-9H-purin-9-yl)-2,10,15,16-tetrahydroxy-2,10-dioxidooctahydro-12H-5,8-methanofuro [3,2-l][1,3,6,9,11,2,10]pentaoxadiphosphacyclotetradecin-7-yl]imidazo[2,1-f][1,2,4]triazin-4(3H)-one] | 63.8 | 72
14 | Nc1nc2c(ncn2[C@@H]2O[C@@H]3COP(=O)(O)O[C@H]4C[C@H](n5cnc6c(=O)[nH]cnc65)O[C@@H]4COP(=O)(O)O[C@@H]2[C@@H]3F)c(=O)[nH]1 [Example 332, 2-amino-9-[(5R,7R,8S,12aR,14R,15aS,16R)-16-fluoro-2,10-dihydroxy-2,10-dioxido-14-(6-oxo-1,6-dihydro-9H-purin-9-yl)octahydro-12H-5,8-methanofuro[3,2-l][1,3,6,9,11,2,10]pentaoxadiphosphacy-clotetradecin-7-yl]-1,9-dihydro-6H-purin-6-one] | 8.2 | 113
15 | Nc1nc2c(ncn2[C@@H]2O[C@@H]3COP(=O)(O)O[C@H]4[C@@H](O)[C@H](n5cnc6c(N)ncnc65)O[C@@H]4COP(=O)(O)O[C@@H]2[C@@H]3N)c(=O)[nH]1 [Example 75, 2-Amino-9-[(5S,7R,8R,12aR,14R,15R,15aS,16R)-16-amino-14-(6-amino-9H-purin-9-yl)-2,10,15-trihydroxy-2,10-dioxidooctahydro-12H-5,8-methanofuro[3,2-l][1,3,6,9,11,2,10]pentaoxadiphosphacyclotetradecin-7-yl]-1,9-dihydro-6H-purin-6-one] | 2.6 | 96
